Laboratory results as given in US10617649B2 (Zhejiang Huahai Pharmaceutical Co., Ltd, priority 2016, dated 2020).

Legend:
[1] = Stability of azacitidine solution as a function of the preparation temperature; format: physicochemical
[2] = Content of bacterial endotoxin; conditions: excipient used in Example 3
[3] = temperature of azacitidine solution higher than 6° C.

Stability of azacitidine in solution, compared between temperatures ([1]; solution prepared at 4-6° C. compared to 2-3° C.)	Stability of azacitidine in solution ([1]; temperature for preparing azacitidine solution controlled at 2-6° C.)	Content of azacitidine in solution [1, 3]	Related substances in solution [1, 3]	Structure (SMILES)	Content of bacterial endotoxin in excipient [2]
the same stability	good stability	significantly decreased	significantly increased	Nc1ncn([C@@H]2O[C@H](CO)[C@@H](O)[C@H]2O)c(=O)n1 [azacitidine, Azacitidine]	
				OC[C@@H](O)[C@@H](O)[C@H](O)[C@H](O)CO [mannitol, Mannitol]	2.5 EU/g
